Test results as given in paper PMC11397024, “Strategic Fluorination to Achieve a Potent, Selective, Metabolically Stable, and Orally Bioavailable Inhibitor of CSNK2” (Molecules, 2024).
Where two headings read alike, the source gives them in different places. Marks after values point to notes of the source that are not given here.

What was measured:
CSNK2A1 = molecular target: T1, CSNK2A1 (Homo sapiens, UniProt P68400); parameters: method as in PMID 37901516; settings: NanoBRET; cited from earlier work
T1 construct: expressed in transfected cells; host or cells: HEK293

[1] = Hepatocyte stability, human; assay type: in vitro ADME; settings: cryopreserved hepatocytes, over 2 h
Method: Human cryopreserved hepatocytes were supplied by BioIVT (lot QZW, 10 pooled donors, Westbury, NY, USA). Mouse cryopreserved hepatocytes were supplied by BioIVT (lot ZPG, pooled male CD-1). Vials of cryopreserved hepatocytes were removed from storage and thawed in a 37 °C water bath with gentle shaking, and then the contents were poured into a 50 mL thawing medium conical tube. Vials were centrifuged at 100× g for 10 min at room temperature. The thawing medium was aspirated, and hepatocytes were resuspended with a serum-free incubation medium to yield ~1.5 × 10^6 cells/mL. Cell viability and density were counted using AO/PI fluorescence staining, and then cells were diluted with a serum-free incubation medium to a working cell density of 0.5 × 10^6 viable cells/mL. Aliquots of 198 μL of hepatocytes were dispensed into each well of a 96-well noncoated plate. The plate was placed in an incubator for approximately 10 min. […] Peak areas were determined from extracted ion chromatograms, and the slope value, k, was determined by linear regression of the natural logarithm of the remaining percentage of the parent drug vs. incubation time curve. The intrinsic clearance (CLint in μL/min/10^6 cells) was calculated using the relationship CLint = kV/N, where V is the incubation volume (0.2 mL) and N is the number of hepatocytes per well (0.1 × 10^6 cells). […]

[2] = cited from earlier work
[3] = cited from earlier work; remark: listed apart in the source
[4] = Liver microsomal stability, human; assay type: in vitro ADME; settings: pH 7.4, human liver microsomes, five time points over 1 h, read-out: HLM CLint
[5] = system: mouse hepatitis virus (MHV); parameters: method as in PMID 37901516; settings: cited from earlier work
[6] = CellTiter-Glo cytotoxicity assay; assay type: cell-based, Human; settings: human, A549-ACE2 cells, 48 h, CellTiter-Glo, quadruplicate
Method: A549-ACE2 cells were maintained in low-glucose DMEM (Gibco, Waltham, MA, USA) supplemented with 10% FBS, 1% NEAA, and 1% L-glutamine. No antibiotics were used. Cells were plated at 2000 cells/well in a 384-well plate (Costar, Glendale, AZ, USA) and incubated overnight (37 °C, 5% CO2) before adding the compound. Compounds were added in quadruplicate and incubated for 48 h. DMSO percentage was constant across all concentrations of the compound. Cell viability was measured using CellTiter-Glo2 (Promega, Madison, WI, USA) and the luminescence signal was read on a GloMax plate reader (Promega, Madison, WI, USA). Dose–response analysis was performed using GraphPad Prism.

CSNK2A2 = molecular target: T2, CSNK2A2 (Homo sapiens, UniProt P19784); parameters: method as in PMID 37901516; settings: NanoBRET; cited from earlier work
T2 construct: expressed in transfected cells; host or cells: HEK293

SARS-CoV-2 = SARS-CoV-2 assay in A549-ACE2 cells; assay type: cell-based; settings: Severe acute respiratory syndrome coronavirus 2, triplicate, read-out: SARS-CoV-2 pIC50 (converted)
[7] = cited from earlier work; remark: listed apart in the source
[8] = system: mouse hepatitis virus (MHV); assay: MHV assay (MHV-nLuc in DBT cells); settings: read-out: IC50 for the assay; MHV-nLuc, DBT cells; positive control
Method: DBT cells were cultured at 37 °C in Dulbecco’s modified Eagle medium (DMEM; Sigma-Aldrich, St. Louis, MO, USA) supplemented with 10% fetal bovine serum (FBS; Avantor, Randor, PA, USA) and penicillin and streptomycin (Sigma-Aldrich, St. Louis, MO, USA). DBT cells were plated in 96-well plates to be 80% confluent at the start of the assay. Test compounds or positive control EIDD-1931 were diluted to 15 μM in DMEM. Serial 4-fold dilutions were made in DMEM, providing a concentration range of 15–0.22 μM. Media were aspirated from the DBT cells, and 100 μL of the diluted test compounds was added to the cells for 1 h at 37 °C. After 1 h, MHV-nLuc5 was added at an MOI of 0.1 in 50 μL of DMEM so that the final concentration of the first dilution of the compound was 10 μM (T = 0). After 10 h, the media were aspirated, and the cells were washed with PBS and lysed with passive lysis 5X buffer (Promega, Madison, WI, USA) for 20 min at room temperature. Relative light units (RLUs) were measured using a luminometer (Promega; GloMax, Madison, WI, USA). Triplicate data were analyzed in GraphPad Prism version 9.4.1 for macOS to generate IC50 values.

[9] = cited from earlier work; remark: listed apart in the source

T2 sequence (P19784 whole entry): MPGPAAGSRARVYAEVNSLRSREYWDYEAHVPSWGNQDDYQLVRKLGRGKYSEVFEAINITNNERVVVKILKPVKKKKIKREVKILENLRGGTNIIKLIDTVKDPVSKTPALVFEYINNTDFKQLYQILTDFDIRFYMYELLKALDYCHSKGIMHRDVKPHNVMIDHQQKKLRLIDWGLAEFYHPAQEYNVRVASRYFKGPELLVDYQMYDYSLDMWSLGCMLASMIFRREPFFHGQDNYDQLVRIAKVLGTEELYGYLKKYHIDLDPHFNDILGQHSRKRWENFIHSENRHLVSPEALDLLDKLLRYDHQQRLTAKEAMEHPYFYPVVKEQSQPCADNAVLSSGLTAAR
T1 sequence (P68400 whole entry): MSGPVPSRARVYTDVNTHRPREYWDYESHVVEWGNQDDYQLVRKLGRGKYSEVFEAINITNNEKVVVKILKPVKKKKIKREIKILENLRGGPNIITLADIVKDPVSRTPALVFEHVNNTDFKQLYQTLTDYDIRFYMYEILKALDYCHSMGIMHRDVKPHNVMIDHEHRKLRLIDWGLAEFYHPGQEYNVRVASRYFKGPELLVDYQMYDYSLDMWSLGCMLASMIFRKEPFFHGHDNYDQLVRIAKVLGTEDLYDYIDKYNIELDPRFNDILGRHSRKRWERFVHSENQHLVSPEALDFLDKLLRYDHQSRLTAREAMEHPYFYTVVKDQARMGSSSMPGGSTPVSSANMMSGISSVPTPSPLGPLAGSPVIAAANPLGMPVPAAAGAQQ

For `CCC(=O)Nc1cc(Nc2cc(NC3CC3)n3ncc(C#N)c3n2)ccc1N1CCC[C@H](NC)C1` [Compound 1], which “CSNK2A1 pIC50” value (CSNK2A1) is on record?
The value was 7.6 ^f.

What about the CLint scaled at 1 μM [1] of the same compound?
Its CLint scaled at 1 μM is 4.1 mL/min/kg.

And the “Kinetic Solubility” value ([2]; pH 7.4)?
The value was 71 ^f μg/mL.

What about the AUClast ([3]; mouse plasma, 10 mg/kg i.p.) of the same compound?
The AUClast was 7.01 µM·h.

What about the Cmax ([3]; mouse plasma, 10 mg/kg i.p.) of the same compound?
The Cmax was 4.71 µM.

And the Tmax ([3]; mouse plasma, 10 mg/kg i.p.)?
The Tmax was 0.25 h.

What about the t1/2 ([3]; mouse, in vivo, ip, 10 mg/kg) of the same compound?
The t1/2 was 1.2 h.

And the AUClast ([3]; mouse, in vivo, iv, 1 mg/kg)?
The AUClast was 1.4 µM·h.

And the Vdss ([3]; mouse, in vivo, iv, 1 mg/kg)?
Its Vdss is 2.6 L/kg.

And the t1/2 ([3]; mouse, in vivo, iv, 1 mg/kg)?
The t1/2 was 1.3 h.

What about the CLint scaled at 5 μM [4] of the same compound?
Its CLint scaled at 5 μM is 12.5 mL/min/kg.

What about the “MHV pIC50” value [5] of the same compound?
Its value is 6.9 ^f.

And the viability at 48 h, 0.1 µM ([6]; 0.1 μM)?
The viability at 48 h, 0.1 µM was 100%.

What about the viability at 48 h, 1 µM ([6]; 1.0 μM) of the same compound?
The viability at 48 h, 1 µM was 79%.

And the “CSNK2A2 pIC50” value (CSNK2A2)?
The value was 7.7 ^f.

What about the IC50 (SARS-CoV-2) of the same compound?
The IC50 was 631 nM.

What about the “Mouse Hepatocytes CLint” value [7] of the same compound?
Its value is 143 mL/min/kg.

Which IC50 [8] does the source give for `O=c1nc(NO)ccn1[C@@H]1O[C@H](CO)[C@@H](O)[C@H]1O` [EIDD-1931, reference compound] here?
Its IC50 is 1200 nM.

For `CCC(=O)Nc1cc(Nc2cc(NC3CC3)n3ncc(C#N)c3n2)ccc1C` [SGC-CK2-1, reference compound], which solubility [2] is on record?
Its solubility is “poor solubility”.

What about the “stability in mouse liver microsomes” value [9] of the same compound?
The value was “poor stability in mouse liver microsomes”.
